Consider four compounds from ChEMBL document CHEMBL3860050, “Triterpenoids from Momordica balsamina: Reversal of ABCB1-mediated multidrug resistance” (Bioorg Med Chem, 2016).

The term IC50 denotes the point on the concentration scale where inhibition reaches its midpoint.

Data set [1] deals with T1, ATP-dependent translocase ABCB1 (Homo sapiens, UniProt P08183). Description: Inhibition of MDR1-mediated efflux-pump activity in mouse L5178Y cells expressing human MDR1 assessed as side scattered light at 20 uM preincubated for 10 mins followed by rhodamine-123 addition measured after 20 mins by flow cytometry (reference value: 194.6 to 286.4). It counts as cell-based. For orientation: In flow cytometry, cells or beads pass a laser one at a time.
T1 sequence (P08183 whole entry): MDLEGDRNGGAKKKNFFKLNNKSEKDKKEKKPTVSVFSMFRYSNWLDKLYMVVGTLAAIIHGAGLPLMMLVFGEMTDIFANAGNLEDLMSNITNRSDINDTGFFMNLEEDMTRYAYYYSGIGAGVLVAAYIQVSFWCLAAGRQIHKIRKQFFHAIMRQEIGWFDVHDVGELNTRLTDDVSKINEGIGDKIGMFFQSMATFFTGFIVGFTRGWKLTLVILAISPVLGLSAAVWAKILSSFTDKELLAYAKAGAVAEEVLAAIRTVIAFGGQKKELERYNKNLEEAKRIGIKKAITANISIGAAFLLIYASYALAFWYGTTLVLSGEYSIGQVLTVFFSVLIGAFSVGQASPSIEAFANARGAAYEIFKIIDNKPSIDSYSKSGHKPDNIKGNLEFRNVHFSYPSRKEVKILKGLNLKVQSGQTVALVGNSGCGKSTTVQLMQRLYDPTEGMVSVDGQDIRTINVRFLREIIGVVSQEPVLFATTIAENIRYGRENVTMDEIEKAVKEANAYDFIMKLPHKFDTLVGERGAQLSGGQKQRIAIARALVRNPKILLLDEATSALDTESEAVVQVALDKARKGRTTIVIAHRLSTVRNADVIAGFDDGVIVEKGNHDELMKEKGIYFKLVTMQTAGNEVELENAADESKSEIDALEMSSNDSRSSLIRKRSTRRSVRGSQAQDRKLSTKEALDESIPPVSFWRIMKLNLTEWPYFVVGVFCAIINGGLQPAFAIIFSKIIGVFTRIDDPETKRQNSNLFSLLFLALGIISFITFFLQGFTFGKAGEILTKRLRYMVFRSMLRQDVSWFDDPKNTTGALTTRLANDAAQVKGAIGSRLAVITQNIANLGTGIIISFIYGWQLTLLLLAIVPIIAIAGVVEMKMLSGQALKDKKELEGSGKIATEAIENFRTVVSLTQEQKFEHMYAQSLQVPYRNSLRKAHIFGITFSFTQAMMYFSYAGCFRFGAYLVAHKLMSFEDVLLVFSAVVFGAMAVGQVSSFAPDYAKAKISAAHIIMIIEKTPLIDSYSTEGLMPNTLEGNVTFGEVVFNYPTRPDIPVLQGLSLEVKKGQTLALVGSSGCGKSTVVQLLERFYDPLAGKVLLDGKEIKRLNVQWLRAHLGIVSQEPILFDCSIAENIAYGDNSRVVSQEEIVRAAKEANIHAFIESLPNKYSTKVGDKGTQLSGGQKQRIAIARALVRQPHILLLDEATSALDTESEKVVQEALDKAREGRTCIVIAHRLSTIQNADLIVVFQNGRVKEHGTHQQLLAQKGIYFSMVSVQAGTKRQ

The target in data set [2] is T1, ATP-dependent translocase ABCB1. Description: Inhibition of MDR1-mediated efflux-pump activity in mouse L5178Y cells expressing human MDR1 assessed as mean fluorescence intensity at 2 uM preincubated for 10 mins followed by rhodamine-123 addition measured after 20 mins by flow cytometry (reference value: 7.1 to 18.6). Type of data set: cell-based.
For data set [3] the target is unchanged. Description: Inhibition of MDR1-mediated efflux-pump activity in mouse L5178Y cells expressing human MDR1 assessed as side scattered light at 2 uM preincubated for 10 mins followed by rhodamine-123 addition measured after 20 mins by flow cytometry (reference value: 194.6 to 286.4). Type of data set: cell-based.
Data set [4] has the same target. The data set can be described thus: Inhibition of MDR1-mediated efflux-pump activity in mouse L5178Y cells expressing human MDR1 assessed as fluorescence activity ratio at 20 uM preincubated for 10 mins followed by rhodamine-123 addition measured after 20 mins by flow cytometry. It counts as cell-based.
Data set [5] has the same target. The data set can be described thus: Inhibition of MDR1-mediated efflux-pump activity in mouse L5178Y cells expressing human MDR1 assessed as fluorescence activity ratio at 2 uM preincubated for 10 mins followed by rhodamine-123 addition measured after 20 mins by flow cytometry. It counts as cell-based.
The target is the same in data set [6]. The data set can be described thus: Inhibition of MDR1-mediated efflux-pump activity in mouse L5178Y cells expressing human MDR1 assessed as forward scattered light at 20 uM preincubated for 10 mins followed by rhodamine-123 addition measured after 20 mins by flow cytometry (reference value: 455.7 to 509.9). It counts as cell-based.
For data set [7] the target is unchanged. Description: Inhibition of MDR1 in mouse L5178Y cells expressing human MDR1 assessed as doxorubicin-induced antiproliferative activity by measuring combination index at 1.4:1 compound to doxorubicin ratio measured after 48 hrs by MTT assay. Type of data set: cell-based.
The target is the same in data set [8]. Description: Inhibition of MDR1-mediated efflux-pump activity in mouse L5178Y cells expressing human MDR1 assessed as mean fluorescence intensity at 20 uM preincubated for 10 mins followed by rhodamine-123 addition measured after 20 mins by flow cytometry (reference value: 7.1 to 18.6). Type of data set: cell-based.
Data set [9] in a line: Antiproliferative activity against mouse L5178Y cells measured after 72 hrs by MTT assay. It counts as functional, cell-based. For orientation: Tetrazolium dyes change colour on reduction, which living cells bring about.
Data set [10] is described as follows: Antiproliferative activity against mouse L5178Y cells expressing human MDR1 measured after 72 hrs by MTT assay. It counts as functional, cell-based.
For data set [11], the target named is T1, ATP-dependent translocase ABCB1. Description: Inhibition of MDR1-mediated efflux-pump activity in mouse L5178Y cells expressing human MDR1 assessed as forward scattered light at 2 uM preincubated for 10 mins followed by rhodamine-123 addition measured after 20 mins by flow cytometry (reference value: 455.7 to 509.9). It counts as cell-based.
For data set [12] the target is unchanged. The data set can be described thus: Inhibition of MDR1 in mouse L5178Y cells expressing human MDR1 assessed as doxorubicin-induced antiproliferative activity by measuring combination index at 11.3:1 compound to doxorubicin ratio measured after 48 hrs by MTT assay. It counts as cell-based.
For data set [13] the target is unchanged. Description: Inhibition of MDR1 in mouse L5178Y cells expressing human MDR1 assessed as doxorubicin-induced antiproliferative activity by measuring combination index at 5.7:1 compound to doxorubicin ratio measured after 48 hrs by MTT assay. Type of data set: cell-based.

Consider `CO[C@H]1C=C2[C@@H](CC[C@H](O)C2(C)C)[C@]2(C)C[C@@H](O)[C@]3(C)[C@@H]([C@H](C)C/C=C/C(C)(C)O)CC[C@@]3(C)[C@H]12`, for which the Activity stood at 235.8 in data set [1], 249.6 in [3], 585 in data set [6] and 568.6 in data set [11]. The results for the Flu intensity in data set [2] and in [8] were 27.2 and 391.6, respectively. In addition, the Ratio came out at 38.2 in [4] and 2.7 in data set [5]. Moreover, the CI in [7] is given as 0.393. For the same compound, the IC50 in data set [9] was found to be 44.4 µM; in [10], 46.3 µM.
Turning to `CC(C)=C[C@H](O)C[C@@H](C)[C@H]1CC[C@@]2(C)[C@@H]3[C@@H](O)C=C4[C@@H](CC[C@H](O)[C@]4(C)CO)[C@]3(C)CC[C@]12C` [BALSAMINOL A], the Activity came out at 260 in data set [1], 259 in [3], 454.5 in data set [6] and 432.9 in data set [11]. In addition, in [12], the CI is listed as 0.503. Further, the Flu intensity in data set [2] amounted to 20.1; in data set [8], 766.1. For the same compound, the Ratio in [4] stood at 47.6; in data set [5], 1.5. In addition, the IC50 in data set [9] was 7.2 µM; in data set [10] it was 12.6 µM.
Turning to `CO[C@H]1C=C2[C@@H](CC[C@H](O)[C@]2(C)CO)[C@]2(C)CC[C@]3(C)[C@@H]([C@H](C)C[C@@H](O)C=C(C)C)CC[C@@]3(C)[C@H]12` [BALSAMINOL B], the Activity in data set [1] came out at 260.7; in data set [3] it was 258.8; in data set [6], 461.8; in data set [11] it was 439.5. In addition, the Flu intensity is 95.7 in [2] and 899.1 in data set [8]. In addition, the results for the Ratio in data set [4] and in [5] were 68.7 and 7.3, respectively. In addition, the CI in [7] stood at 0.378. The concentration for half-maximal inhibition (IC50) in [9] is 7.7 µM; in data set [10] it was 31 µM.
For the compound `C[C@H](C/C=C/C(C)(C)O)[C@H]1CC[C@@]2(C)[C@@H]3[C@@H](O)C=C4[C@@H](CC[C@H](O)C4(C)C)[C@]3(C)CC[C@]12C`, in [13], the CI turned out to be 0.71. Further, the Activity turned out to be 243.9 in data set [1], 249 in data set [3], 395.2 in [6] and 570.5 in data set [11]. For the same compound, the Flu intensity in data set [2] stood at 73.1; in [8], 368.4. The Ratio in data set [4] came to 36; in data set [5], 7.1. In addition, the values for the IC50 in [9] and in [10] were 18.7 µM and 27.4 µM, respectively.
